Assay results reported in patent publication US20090074885A1, “Reversible Hydrophobic Modification of Drugs for Improved Delivery to Cells” (Roche Madison Inc., priority 2003, published 2009).
Entries after “also recorded” stand apart in the source; their conditions may differ.

Legend:
[1] = Qualitative 90° light scattering for particles; format: physicochemical; details: relative to ITG or PI in ITG
Description: Light Scattering analysis of prodrugs. Particle size was determined by dynamic light scattering on a Zeta Plus (Zeta Potential Analyzer, Brookhaven Instrument Corporation, λ 533 nm, 90°), and results are reported as the size of the most abundant particle (range of particle sizes, counts sec^−1). Fluorescent compounds were also analyzed for particles qualitatively, by measuring for light scattering on a Cary Eclipse Fluorescence Spectrophotometer (Varian Inc.), with λex=λem (300-800 nm, 90° detection). The presence of particles in solution results in an increase in signal detection at 90°. PI and RRH-PI prodrugs were 7.48 mM in DMSO. Melphalan and V were 50 mM in DMSO. The drug/prodrug solutions were mixed and diluted with ITG through the mixing chamber (40 μl OS and 400 μl ITG), and analyzed immediately.

[2] = tested on: various tissues of normal mice; test: Propidium iodide delivery to a variety of target cells by injection or topical administration; format: in vivo, mouse
Description: Propidium iodide delivery to a variety of target cells. […] All biliary and gall bladder arteries, as well as bladder epithelium also stained (FIG. 14B). […] During injection time the common carotid artery was temporary occluded. After injection the blood flow was restored and animals sacrificed 5 min later. […] After three weeks, mice were injected with modified PI. […] Injection was performed using similar 35 G needle into right ureter close to the bladder. […] Clamps were then released and 5 min later animals were sacrificed. The intestine lumen was flushed with 1 ml of ITG and analyzed as described above.

[3] = tested on: cells exposed to the peritoneal cavity; test: IP application to normal mice, confocal microscopy; format: in vivo, mouse; details: 10-60 min
Description: For evaluation of prodrug delivery to exposed tissues in the peritoneum, we tested IP application of propidium iodide, BDMSODS-PI, and C12PMMA-PI to both normal mice and in a mouse model of disseminated peritoneal ovarian cancer. All procedures were executed under Isoflurane inhalation anesthesia. In normal mice either the abdominal cavity was opened and the drug mixture was directly applied on abdominal organs (220 μL of drug-OS/ITG over 30 sec), or the drug mixture was injected through the abdominal wall (1 mL of drug-OS/ITG over 1 min). For both delivery protocols, the dual pump mixing chamber was used. After 10-60 min, the animals were euthanized and tissues were harvested, frozen, sectioned, stained with ToPro-3 and Phalloidin Alexa 488, and examined by laser confocal microscopy.

MC38 liver metastases = test: Liver arterial bolus injection (LABI) in mice with MC38 liver metastases; format: in vivo, C57BL mice; details: for PI staining of MC38 liver metastases: hepatic artery (LABI) delivery
Description: All surgical procedures were performed under Isoflurane anesthesia. Liver tumors models were established in C57BL mice using MC38 (colon carcinoma) and Hepa 1-6 (hepatoma), in BALB/c mice using B16 (melanoma), and in A/J mice using NXS2 (neuroblastoma) cell lines. Mice were inoculated via the portal vein with 1×10^4 MC38 cells or 0.5-1.25×10^6 Hepa 1-6 cells, or via the tail vein with 0.5-1.25×10^6 B16 or NXS2 cells. Tumor formation was allowed to progress for 2-3 weeks with periodic examination for tumor growth prior to drug/prodrug treatment.
The right gastro-duodenal artery was freed from surrounding tissue and the common hepatic artery was clamped occluding blood flow. The distal part of the right gastroduodenal artery was sutured, a 35 G needle was inserted into the gastroduodenal artery, and secured during the single bolus injection. Following the injection, the needle was retracted and the proximal part of gastroduodenal artery was sutured, and hepatic artery flow was restored. Alternatively, the celiac trunk was clamped close to the aorta and a 35 G needle was inserted above the clamp. The left gastric, splenic, and gastro-duodenal arteries were clamped in order to direct all of the drug solution to the liver. This latter approach was advantageous in the C57BL mouse model because of anatomical variations involving the hepatic artery.
LABI delivery of drug/prodrug (0.150 μmol, 220 μl total injection volume) and controls were performed using the mixing chamber and syringe pumps as previously described. For fluorescent microscopy analysis, the livers were harvested 5 min after LABI, snap frozen in O.C.T. compound, sectioned, stained (for confocal, green—actin (Alexa 488), blue—nuclei (ToPro-3)), and analyzed by fluorescent (Axioplan2) fluorescent microscope (Zeiss) in the rhodamine fluorescence channel (λex=BP 450/12, λem=LP 590 nm filter set) or in the fluorescein fluorescent channel (λex=BP 546/90, λem=LP 515 nm filter set) due to signal intensity) and confocal microscopy (Axioplan 2, Zeiss). For experiments designed to determine the number of PI positive cells, five random fields containing liver tumors and five random fields containing portal triads void of tumor were imaged. The number of cells and positive cells were counted to determine the percentage of positive cells in the corresponding regions.

[4] = tested on: SK-OV-3 (human ovarian carcinoma) cells; test: In vitro cellular uptake by fluorescence microscopy, SK-OV-3; format: cell-based; details: for PI positive cells: 0.150 μmol in 220 μl via mixing chamber, 30 sec exposure; for PI positive cells, prodrug premixed with ITG: premixed with ITG (5 min) before application to the cells
Description: In Vitro cellular uptake of PI, RRH-PI compounds, and IV evaluated by fluorescence measurements. […] Adherent cells were plated at 2.5×10^5 cells/well on 6-well plates 24 h prior to testing. The growth media was removed from individual wells and the drug/prodrug was immediately added to the well with the mixing chamber. […] After 30 sec the drug solution was removed (aspirated) and 2 ml complete media was added to the cells. Experiments conducted with prodrug that was hydrolyzed prior to application to the cells followed a similar protocol, however the combined solution obtained after passing through the mixing chamber was collected and allowed to sit at ambient temperature for 5 min prior to application on the cells. Experiments conducted with Calcein AM (Invitrogen, 100 μl of 20 μM solution in complete media) followed a similar protocol for drug treatment (4 min treatment). Experiments conducted with SYTOX Green (Invitrogen) followed a similar protocol for drug treatment. […] Each condition was repeated in 2 or 3 wells, and the cells were immediately examined by microscopy. Fluorescent microscopy studies were conducted with a three laser LSM 510 confocal microscope, an Axiovert S100 fluorescent microscope, or an Axioplan2 fluorescent microscope (all Zeiss) equipped with filter sets for the rhodamine fluorescence channel (λex=BP 450/12, λem=LP 590 nm filter set) and the fluorescein fluorescent channel (λex=BP 546/90, λem=LP 515 nm filter set). Imaging was performed with an AxioCam digital camera (Zeiss), with AxioVision imaging software (V 4.5, Zeiss). For all images, identical camera settings and exposure times were used on comparative sample and control images. Images were processed with Photoshop (Adobe) for level and brightness using identical settings between sample and control images. For experiments conducted with IV, the cells were plated on 6-well plates with cover slips. […] Imaging was conducted on an Axioplan2 fluorescent microscope (Zeiss) and the same fields were imaged with phase contrast illumination, in the rhodamine fluorescence channel (λex=BP 450/12, λem=LP 590 nm filter set), and in the fluorescein fluorescent channel (λex=BP 546/90, λem=LP 515 nm filter set). IV was also mixed with PI and then delivered to SK-OV-3 cells, and the cells were imaged as before. In one protocol, equal amounts of IV (15.0 mM in DMSO) and PI (15.0 mM in DMSO) were combined and the resulting solution was added to cells via the mixing chamber. In a second method, PI was taken up in the ITG solution (0.748 mM) and mixed with IV (7.48 mM in DMSO) in the mixing chamber. […] The cells were imaged as before following 30 sec-4 min exposure to the drug solution.

[5] = tested on: Hepa 1-6 (mouse hepatoma) cells; test: In vitro cellular uptake by fluorescence microscopy, Hepa 1-6; format: cell-based; details: 0.150 μmol in 220 μl via mixing chamber, 30 sec exposure
Description: In Vitro cellular uptake of PI, RRH-PI compounds, and IV evaluated by fluorescence measurements. PI and the RRH-prodrugs were tested for cellular uptake on several cell lines which included B16 (murine melanoma), Hepa 1-6 (mouse hepatoma), SK-OV-3 (also SKOV-3, human ovarian carcinoma), OVCAR-3 (human ovarian carcinoma), Jurkat (human T-lymphocyte), 293 (human embryonic kidney), and MC38 (mouse colon carcinoma) cells. Adherent cells were plated at 2.5×10^5 cells/well on 6-well plates 24 h prior to testing. The growth media was removed from individual wells and the drug/prodrug was immediately added to the well with the mixing chamber. Final drug/prodrug concentrations were 0.150 μmol in 220 μl total volume (20 μl OS, 200 μl ITG). After 30 sec the drug solution was removed (aspirated) and 2 ml complete media was added to the cells. Experiments conducted with prodrug that was hydrolyzed prior to application to the cells followed a similar protocol, however the combined solution obtained after passing through the mixing chamber was collected and allowed to sit at ambient temperature for 5 min prior to application on the cells. […] SYTOX Green (20 μl of 5 μM solution in 20 mM Hepes, pH 7.4) was added to the wells and the cells were examined. Each condition was repeated in 2 or 3 wells, and the cells were immediately examined by microscopy. Fluorescent microscopy studies were conducted with a three laser LSM 510 confocal microscope, an Axiovert S100 fluorescent microscope, or an Axioplan2 fluorescent microscope (all Zeiss) equipped with filter sets for the rhodamine fluorescence channel (λex=BP 450/12, λem=LP 590 nm filter set) and the fluorescein fluorescent channel (λex=BP 546/90, λem=LP 515 nm filter set). Imaging was performed with an AxioCam digital camera (Zeiss), with AxioVision imaging software (V 4.5, Zeiss). For all images, identical camera settings and exposure times were used on comparative sample and control images. Images were processed with Photoshop (Adobe) for level and brightness using identical settings between sample and control images.

[6] = tested on: Jurkat (human T-lymphocyte) cells; test: In vitro cellular uptake by fluorescence microscopy, Jurkat; format: cell-based; details: FIG. 5B
Description: In Vitro cellular uptake of PI, RRH-PI compounds, and IV evaluated by fluorescence measurements. […] Adherent cells were plated at 2.5×10^5 cells/well on 6-well plates 24 h prior to testing. The growth media was removed from individual wells and the drug/prodrug was immediately added to the well with the mixing chamber. […] After 30 sec the drug solution was removed (aspirated) and 2 ml complete media was added to the cells. Experiments conducted with prodrug that was hydrolyzed prior to application to the cells followed a similar protocol, however the combined solution obtained after passing through the mixing chamber was collected and allowed to sit at ambient temperature for 5 min prior to application on the cells. Experiments conducted with Calcein AM (Invitrogen, 100 μl of 20 μM solution in complete media) followed a similar protocol for drug treatment (4 min treatment). Experiments conducted with SYTOX Green (Invitrogen) followed a similar protocol for drug treatment. […] Each condition was repeated in 2 or 3 wells, and the cells were immediately examined by microscopy. Fluorescent microscopy studies were conducted with a three laser LSM 510 confocal microscope, an Axiovert S100 fluorescent microscope, or an Axioplan2 fluorescent microscope (all Zeiss) equipped with filter sets for the rhodamine fluorescence channel (λex=BP 450/12, λem=LP 590 nm filter set) and the fluorescein fluorescent channel (λex=BP 546/90, λem=LP 515 nm filter set). Imaging was performed with an AxioCam digital camera (Zeiss), with AxioVision imaging software (V 4.5, Zeiss). For all images, identical camera settings and exposure times were used on comparative sample and control images. Images were processed with Photoshop (Adobe) for level and brightness using identical settings between sample and control images. For experiments conducted on Jurkat cells (8.0×10^5 cells/ml in media), the cells were isolated by centrifugation and resuspended in ITG at a density of 4.0×10^6 cells/ml. Exposure to the drug/prodrug was conducted by passing the cells in suspension in ITG (200 μl) through the mixing chamber. […]

[7] = intestinal intra lumen application, 100 μg

CCCCCCCCCCCCCCCCCC[Si](C)(C)Nc1ccc2c(c1)c(-c1ccccc1)[n+](CCC[N+](C)(CC)CC)c1cc(N[Si](C)(C)CCCCCCCCCCCCCCCCCC)ccc21.[I-].[I-] [II, 3,8-bis[((dimethyl)octadecylsilazyl)amine] 5-(3,3-diethyl-3-methylammoniumpropyl) 6-phenyl phenanthridinium diiodide]
increase in 90° light scattering signal intensity [1]: maximum two fold increase
nuclear staining ([2]; injection into bile duct of normal mouse liver): strong nuclear staining of all bile duct epithelial cells
nuclear staining ([2]; injection into emptied bladder): strong staining of bladder transitional epithelium
nuclear staining ([2]; injection into hepatic artery of normal mouse liver): strong nuclear staining of hepatic artery endothelial and smooth-muscle cells
nuclear staining ([2]; injection into right carotid artery): strong staining of brain endothelial cells
nuclear staining ([2]; injection into the ureter): strong staining of ureter transitional epithelium nuclei
nuclear staining ([2]; injection into unclamped portal vein with preserved blood flow): strong nuclear staining of portal vein cells only
nuclear staining [2, 7]: strong labeling of all enterocyte nuclei
nuclear staining ([2]; portal vein clamped during injection): propidium iodide staining was observed in a majority of hepatocytes
nuclear labeling of peritoneal tissues [3]: near-exclusive PI^+-staining of cells exposed to the peritoneal cavity
cells PI positive in liver parenchyma region (MC38 liver metastases; LABI, confocal counting): 1%
cells PI positive in portal vein region (MC38 liver metastases; LABI, confocal counting): 23%
cells PI positive in MC38 metastases (MC38 liver metastases; LABI, confocal counting, average of five images): 94%
PI positive cells in other organs (heart, lung, spleen, and kidneys) (MC38 liver metastases; after LABI): No PI positive cells were observed in any other organ examined
total number of PI positive non tumor cells in the liver (MC38 liver metastases; estimated from region counts): 2-3%
PI staining of MC38 liver metastases (MC38 liver metastases): strong nuclear staining of the metastases
PI staining of MC38 liver metastases (MC38 liver metastases; listed as BDMODS-PI): intense, near-exclusive PI-staining of MC38 liver metastases; also recorded: strongly labeled with PI; also recorded: nearly all cells labeled
PI positive cells [4]: nearly all of the cells being PI positive
PI positive cells, prodrug premixed with ITG [4]: very few PI positive cells
PI positive cells, prodrug premixed with ITG ([4]; listed as BDMODS-PI): did not show PI positive staining
staining of cells (PI positive) [5]: strong nuclear staining in all of the cells

CC[N+](C)(CC)CCC[n+]1c(-c2ccccc2)c2cc(N)ccc2c2ccc(N)cc21.[I-].[I-] [PI, Propidium iodide, reference compound]
nuclear staining ([2]; injection into any vessel or bile duct of normal liver): little to no nuclear staining
nuclear staining [2, 7]: PI staining was observed in a few intestinal villi cells
nuclear labeling of peritoneal tissues [3]: extremely rare nuclear labeling
PI staining of MC38 liver metastases (MC38 liver metastases): greatly decreased number of PI positive cells within the MC38 metastases
PI staining of MC38 liver metastases (MC38 liver metastases; listed as unmodified PI): Few MC38 metastases labeled
PI positive cells [4]: small percentage of PI positive cells
PI positive cells ([4]; listed as propidium iodide): stained very few cells
staining of cells (PI positive) [5]: stained very few cells
cellular uptake and staining [6]: stained very few cells

CCCCCCCCCCCCNC(=O)CCC(=CCC(=O)O)C(=O)Nc1ccc2c(c1)c(-c1ccccc1)[n+](CCC[N+](C)(CC)CC)c1cc(NC(=O)C(=CCC(=O)O)CCC(=O)NCCCCCCCCCCCC)ccc21.[I-].[I-] [III, 3,8-bis-[2-(2 carboxyethylidene)-4-(dodecarbamoyl)-1-oxo-butylamine] 5-(3,3-diethyl-3-methylammoniumpropyl) 6-phenyl phenanthridinium diiodide]
increase in 90° light scattering signal intensity [1]: maximum two fold increase
nuclear labeling of peritoneal tissues [3]: near-exclusive PI^+-staining of cells exposed to the peritoneal cavity
PI staining of MC38 liver metastases (MC38 liver metastases): paralleled the results detailed with II
PI positive cells [4]: paralleled the results obtained with II
staining of cells (PI positive) [5]: paralleled the results obtained with II
cells stained [6]: ~100%
cellular uptake and staining [6]: strong cellular uptake and staining
